Laboratory results: US5831026A, “Process for purifying factor VIII” (Pharmacia & Upjohn AB, priority 1994, dated 1998)
Like-named read-outs stand apart in the source and are kept apart here.

Test system: factor VIII
Conditions: ambient temperature, vs zero-time value
Method: Conditioned mediums (containing human serum albumin) from four harvests being different from the previous Examples were clarified and buffered with NH4 Ac. Each resulting solution, with a pH of 6.8, was loaded onto a column containing SP SEPHAROSE® FF. This cation-exchange chromatography step was performed at about 8° C. After washing, factor VIII was eluted with a salt buffer containing 0.8M NaCl and 0.1M NH4 Ac. The washing liquid as well as the elution liquid contained 3 mM EDTA. Tests without EDTA present were carried out for comparison. The procoagulant activity of factor VIII was determined by use of a chromogenic substrate method, COATEST® Factor VIII kit (Chromogenix AB of Sweden) after storage at ambient temperature for up to 24 hours. The relative standard deviation (RSD) of the method is 7%.

O=C(O)CN(CCN(CC(=O)O)CC(=O)O)CC(=O)O [EDTA, ethylenediamine tetraacetic acid]
Factor VIII activity (%) In preparation with 3 mM EDTA (harvest solution 1, S-eluate storage 0 h): 100%
Factor VIII activity (%) In preparation with 3 mM EDTA (harvest solution 1, S-eluate storage 6 h): 98%
Factor VIII activity (%) In preparation with 3 mM EDTA (harvest solution 1, S-eluate storage 24 h): 100%
Factor VIII activity (%) In preparation with 3 mM EDTA (harvest solution 2, S-eluate storage 0 h): 100%
Factor VIII activity (%) In preparation with 3 mM EDTA (harvest solution 2, S-eluate storage 6 h): 101%
Factor VIII activity (%) In preparation with 3 mM EDTA (harvest solution 2, S-eluate storage 24 h): 98%
Factor VIII activity (%) In preparation with 3 mM EDTA (harvest solution 3, S-eluate storage 0 h): 100%
Factor VIII activity (%) In preparation with 3 mM EDTA (harvest solution 3, S-eluate storage 6 h): 109%
Factor VIII activity (%) In preparation with 3 mM EDTA (harvest solution 3, S-eluate storage 24 h): 109%
Factor VIII activity (%) In preparation with 3 mM EDTA (harvest solution 4, S-eluate storage 0 h): 100%
Factor VIII activity (%) In preparation with 3 mM EDTA (harvest solution 4, S-eluate storage 6 h): 103%
Factor VIII activity (%) In preparation with 3 mM EDTA (harvest solution 4, S-eluate storage 24 h): 102%
